Assay results: patent US8871179B2, “Method for monitoring blood flow and metabolic uptake in tissue with radiolabeled alkanoic acid” (The General Hospital Corporation, priority 2003, dated 2014)

Key:
[1] = in vivo; cited from earlier work
[2] = Biodistribution of isomers and racemic mixture of labeled 3-methylheptadecanoic acid in rats; format: in vivo; conditions: rat
Method: The following data compare the biodistribution of 1-[^11C]-3(S)-methylheptadecanoic acid (the ‘S’ isomer) and I-[^11C]-3(R)-methylheptadecanoic acid (the ‘R’ isomer). Also compared is the racemic mixture, 1-[^14C]-3(R,S)-methylheptadecanoic acid, labeled with ^14C. […] Biodistribution was performed in six rats for each compound and time point. The 5-minute distribution data are contained in Table 5, while the 30-minute data are contained in Table 6. These unexpected results imply that during β-oxidation, enoyl-CoA hydratase is stereo-specific and only recognizes the ‘S’ isomer. Further, stereoisomeric purity is important for targeting the MFA to heart tissue.

[3] = PET heart imaging in monkey after intravenous [^18F]-FCPHA; format: in vivo
Method: (§1) In FIG. 6, the images are a comparison of [^13N]ammonia (right) and [^18F]FCPHA (left) at 2-8 minutes in a pig.
(§2) The biodistribution of [^18F]-FCPHA was also studied in monkeys.

[4] = Biodistribution of [^18F]-FCPHA in rats (organs excised, gamma counter); format: in vivo, Sprague-Dawley rats; conditions: rat
Method: Male Sprague-Dawley rats weighing approximately 300-350 grams, were injected without anesthesia with 40 µCi of [^18F]-FCPHA in a total volume of 200 µl. The radiolabeled FA was injected into the tail vein and the rats subsequently sacrificed at 5 minutes and 60 minutes post-injection. The organs were excised and counted in a gamma counter. Accumulation of the FA in various organs in % DPG (dose per gram) is detailed in Table 1.
Bone accumulation of the fluorinated FA measured de-fluorination of the compound and its subsequent accumulation. To confirm imaging resolution, the following ratios were determined at 5 and 60 minutes post-injection (Table 2).

[5] = as above; format: in vivo, Sprague-Dawley rats
[6] = Heart imaging in pig after intravenous [^18F]FCPHA; format: in vivo
Method: as §1, §2

[7] = cited from earlier work
[8] = normal myocardium, biexponential clearance

## CC(CCCCCCCCCCCCc1ccc(I)cc1)CC(=O)O (racemic) [BMIPP, 15-(p-iodophenyl)-3-(R,S)-methyl-pentadecanoic acid]
[1]
  Myocardial retention: 30 to 45 min

## CC(C)(CCCCCCCCCCCCc1ccc(I)cc1)CC(=O)O [DMIPP]
[1]
  Myocardial clearance: 6 to 7 h

## CCCCCCCCCCCCCCC(C)C[14C](=O)O (racemic) [R,S racemic mixture, 1-[^14C]-3(R,S)-methylheptadecanoic acid]
[2]; 5 minutes post-injection
  Biodistribution, Blood: 0.23 ± 0.02 % DPE
  Biodistribution, Heart: 2.20 ± 0.95 % DPE
  Biodistribution, Left Ventricle: 2.87 ± 1.01 % DPE
  Biodistribution, Right Ventricle: 2.05 ± 0.54 % DPE
  Heart-to-blood: 9.56
  Left ventricle-to-blood: 12.48
  Right ventricle-to-blood: 8.90
[2]; 30 minutes post-injection
  Biodistribution, Blood: 0.20 ± 0.02 % DPE
  Biodistribution, Heart: 2.10 ± 0.41 % DPE
  Biodistribution, Left Ventricle: 2.81 ± 0.35 % DPE
  Biodistribution, Right Ventricle: 2.10 ± 0.41 % DPE
  Heart-to-blood: 10.10
  Left ventricle-to-blood: 12.48
  Right ventricle-to-blood: 10.05

## CCCCCCCCCCCCCC[C@@H](C)C[11C](=O)O (single isomer, unassigned; isomer i) [R-isomer]
[2]; 5 minutes post-injection
  Biodistribution, Blood: 0.30 ± 0.04 % DPE
  Biodistribution, Heart: 1.40 ± 0.23 % DPE
  Biodistribution, Left Ventricle: 1.50 ± 0.50 % DPE
  Biodistribution, Right Ventricle: 0.94 ± 0.46 % DPE
  Heart-to-blood: 4.66
  Left ventricle-to-blood: 5.00
  Right ventricle-to-blood: 3.13
[2]; 30 minutes post-injection
  Biodistribution, Blood: 0.23 ± 0.03 % DPE
  Biodistribution, Heart: 1.07 ± 0.16 % DPE
  Biodistribution, Left Ventricle: 1.33 ± 0.25 % DPE
  Biodistribution, Right Ventricle: 0.93 ± 0.35 % DPE
  Heart-to-blood: 5.95
  Left ventricle-to-blood: 5.78
  Right ventricle-to-blood: 4.00

## CCCCCCCCCCCCCC[C@H](C)C[11C](=O)O (single isomer, unassigned; isomer 1) [S-isomer]
[2]; 5 minutes post-injection
  Biodistribution, Blood: 0.18 ± 0.01 % DPE
  Biodistribution, Heart: 3.44 ± 0.54 % DPE
  Biodistribution, Left Ventricle: 4.05 ± 0.77 % DPE
  Biodistribution, Right Ventricle: 3.40 ± 0.82 % DPE
  Heart-to-blood: 19.00
  Left ventricle-to-blood: 22.00
  Right ventricle-to-blood: 18.88
[2]; 30 minutes post-injection
  Biodistribution, Blood: 0.21 ± 0.04 % DPE
  Biodistribution, Heart: 3.08 ± 0.30 % DPE
  Biodistribution, Left Ventricle: 3.81 ± 0.37 % DPE
  Biodistribution, Right Ventricle: 2.82 ± 0.46 % DPE
  Heart-to-blood: 14.66
  Left ventricle-to-blood: 18.14
  Right ventricle-to-blood: 18.88

## CCCCCCCCC([18F])CCCCC1CC1CC(=O)O (stereo not drawn) [[^18F]-FCPHA, [^18F]-9-fluoro-3,4-cyclopropyl-heptadecanoic acid]
[3]; monkey
  Blood activity clearance: fast clearance
[3]; monkey heart, after injection (FIG. 3)
  Heart activity as a function of time: initial spike of activity corresponding to blood flow followed by a plateau after 10 minutes
[3]; monkey, sixty minutes after intravenous injection of 5 mCi
  Myocardial trapping visualized by PET: myocardial trapping in both left and right ventricles
[4]; 5 min post-injection
  Accumulation in Adrenal: 0.22 ± 0.061 % DPG
  Accumulation in Blood: 0.064 ± 0.008 % DPG
  Accumulation in Bone: 0.16 ± 0.03 % DPG
  Accumulation in Brain: 0.06 ± 0.01 % DPG
  Accumulation in Gastrointestinal Tract: 0.19 ± 0.040 % DPG
  Accumulation in Kidney: 0.41 ± 0.097 % DPG
  Accumulation in Liver: 1.34 ± 0.26 % DPG
  Accumulation in Lung: 0.47 ± 0.12 % DPG
  Accumulation in Muscle: 0.25 ± 0.009 % DPG
  Accumulation in Spleen: 0.55 ± 0.30 % DPG
  Accumulation in Stomach: 0.12 ± 0.067 % DPG
  Accumulation in Testes: 0.020 ± 0.003 % DPG
[4]; 5 min post-injection, tail vein
  Accumulation in Heart: 1.55 ± 0.66 % DPG
[4]; 60 min post-injection
  Accumulation in Adrenal: 0.30 ± 0.16 5 DPG
  Accumulation in Blood: 0.080 ± 0.019 5 DPG
  Accumulation in Bone: 0.70 ± 0.39 5 DPG
  Accumulation in Brain: 0.05 ± 0.02 5 DPG
  Accumulation in Gastrointestinal Tract: 0.24 ± 0.039 5 DPG
  Accumulation in Heart: 1.43 ± 0.14 5 DPG
  Accumulation in Kidney: 0.34 ± 0.08 5 DPG
  Accumulation in Liver: 0.87 ± 0.15 5 DPG
  Accumulation in Lung: 0.33 ± 0.16 5 DPG
  Accumulation in Muscle: 0.097 ± 0.075 5 DPG
  Accumulation in Spleen: 0.34 ± 0.085 5 DPG
  Accumulation in Stomach: 0.15 ± 0.038 5 DPG
  Accumulation in Testes: 0.011 ± 0.004 5 DPG
[4]; at 5 minutes post-injection
  Heart-to-blood ratio: 25.8
  Heart-to-lung ratio: 3.3
[4]; at 60 minutes post-injection
  Heart-to-blood ratio: 20.4
  Heart-to-lung ratio: 4.6
[5]
  Subcellular distribution in the rat heart: found in the mitochondria
[6]; late images at 60 minutes
  Myocardial activity retention in late images: high myocardial activity retention
[6]; pig
  Blood activity clearance: fast clearance
[6]; pig heart, after injection
  Heart activity as a function of time: initial spike of activity corresponding to blood flow followed by a plateau after 10 minutes

## O=C(O)CCCCCCCCCCCCCCc1ccc(I)cc1 [IPPA, 15-(p-iodophenyl)pentadecanoic acid]
[7]; in vivo
  Blood clearance t½ (elimination): 5 min
[7]; [8]
  Myocardial clearance, fast component t½ (flow): 3.5 min
  Myocardial clearance, slow component t½ (metabolism): 130 min
